Experimental data published in PMC12566971, “Polyprenylated Acylphloroglucinols from Hypericum rochelii and Hypericum olympicum—Cytotoxic Effects on Non-Tumorigenic Cell Lines and Antibacterial Potential” (Pharmaceuticals, 2025).
≈ marks a conversion by molar mass, not a printed value.

How the values were obtained:
S. aureus = experiment: Time kill assay; type: cell-based, Staphylococcus aureus
Procedure: A time kill assay was performed according to the modified protocol of Sendi and Ruppen, 2015 [137]. […] From these dilutions, 25 µL was seeded in brain heart infusion agar in a well of a 12-well plate. An untreated control was plated in the same way. Then, the bacterial suspension (treated and untreated) was placed in an incubator (MLW Kombinat, Leipzig, Germany) at 37 °C. Again, 25 µL of it was taken for seeding after 1, 2, 3, 4, 6, and 24 h, which equals a total of 7 time points. After 16–24 h of incubation, the colonies in the seeded plates from all dilutions were counted, and the number of colony-forming units (CFU) per mL, or in other words, bacteria per mL, was calculated.

human CYP450 3A4 isoform = experiment: ELISA for cytochrome P450 3A4 in HEPG2 cells; type: in vitro ADME
Procedure: The effect on CYP450 was tested using the ELISA method on the HEPG2 liver cell line. As mentioned, it has weak or absent expression of the CYP450 superfamily, e.g., CYP3A4, CYP1A2, etc., and that low basal activity makes it a good model for studies of CYP inducers. In addition, these cells have the advantage of immortalization due to their cancerous nature. The standard curves after the two ELISA tests (Figure S7) were prepared as a standard dose–response curve, also called a four-parameter logistic (4-PL) curve.
The effect on human cytochrome P450 3A4, the major member of the CYP450 superfamily of enzymes, which is predominantly found in the liver and metabolizes approximately half of the drugs metabolized by CYP450 enzymes, was assayed using the CYP3A4 ELISA Kit (DL-CYP3A4-Hu, DLdevelop, Kelowna, BC, Canada). Sample selection and initial preparation were as for the total cytochrome ELISA. The experiment was performed according to the manufacturer’s instructions. This assay is a sandwich enzyme immunoassay based on the binding of CYP3A4 in standards and samples to a biotin-conjugated antibody specific for CYP3A4. […] The reaction was stopped by adding sulfuric acid solution, and the plate was read at 450 nm on a microplate reader ELx800 (BioTek Instruments, Inc.). The CYP3A4 concentration was determined by comparing the O.D. of the samples with the standard curve.

CCL-1 = experiment: MTT assay for cytotoxicity; type: cell-based, murine
Procedure: The MTT assay was performed according to Annex C, ISO 10993-5 [56] as in [116]. The panel of non-tumorigenic cell lines consisted of one murine (CCL-1 fibroblasts, which are recommended as a standard for cytotoxicity evaluation in Annex C of ISO 10993-5 [56]) and four human cell lines—HaCaT (immortalized epidermal keratinocytes), HGF (gingival fibroblasts), HEK-293 (embryonic cells from kidney epithelium), and HEPG2 (hepatoblastoma). Although technically a cancer cell line, HEPG2 is non-tumorigenic and retains many hepatocyte-related features in its proteome and a high degree of morphological and functional differentiation, also being a stage one hepatoblastoma.
CCL-1 was purchased from ATCC and HaCaT and HGF were bought from CLS Cell Lines Service (GmbH, Eppelheim, Germany). HEK-293 and HEPG2 were obtained from DSMZ. The cell culture medium for HaCaT and HEPG2 was Dulbecco’s Modified Eagle Medium (DMEM) with 4.5 g/L glucose (DMEM-HA). For HGF it was DMEM/F-12 (DMEM-12-A, a 1:1 mixture of DMEM and Ham’s F-12 medium). The cell medium for CCL-1 and HEK-293 was Eagle’s Minimum Essential Medium (MEM) (MEM-A). Ten percent heat-inactivated fetal bovine serum (FBS) was added to all media but to the one for the CCL-1 cells, to which 10% heat-inactivated horse serum was added. All media were supplemented with 2 mM L-glutamine and Penicillin/Streptomycin (Pen/Strep, 100×). The cell culture media, sera, and additives were from Capricorn Scientific (Düsseldorf, Germany).
GraphPad Prism software version 9 (GraphPad Software Inc., San Diego, CA, USA) was used to calculate the IC50 values from the MTT assays as in [116], as well as the MTC values, and the ELISA standard curves. The MTC values are, according to ISO 10993-5, the maximum concentration at which at least 70% of the cells are viable (nonlin fit, range).

tumor cell lines = conditions: ref [29]; cited from earlier work
CCL-1 cells = experiment: Colony-forming unit assay; type: cell-based, murine; conditions: for Percentage of colonies, CCL-1: untreated control = 100%
Procedure: The CFU was also performed according to ISO 10993-5 [56]. Briefly, the cell lines were seeded at a concentration like for the MTT assay in 6-well plates, treated with the chosen agents and left for a 48 h exposure. Then, the cells were trypsinized, and pre-calculated 20 to 100 µL from the cell suspension was added to a sterile Roswell Park Memorial Institute (RPMI) medium (RPMI-A, Capricorn Scientific), containing 20% of the respective cell culture medium for each cell line but with a final concentration of FBS and L-glutamine of 40–42% and 0.8–1.2 mM, respectively, 0.2% NaHCO3 (S6297, Merck Sigma-Aldrich, Saint Louis, MI, USA), and 0.8% methylcellulose (M0512, Merck Sigma-Aldrich) for viscosity. The viscous cell solution was vortexed for 10 s and dispensed in an equal number of cells per well in 6-well plates (1.2 mL per well) in triplicate for each concentration of treatment. HaCaT and HEK-293 were seeded at a concentration of 2500 cells per mL, CCL-1 and HEPG2—2000 cells per mL, and HGF—1000 cells per mL. The plates were incubated for 6 to 10 days, and when the colonies reached 20 to 50 cells per colony, 100 µL MTT salt solution was added to each well. After half an hour, the stained colonies were counted manually using a microscope.

Q: For `CC(C)=CCCC1(C)C(CC=C(C)C)CC2C(=O)C1(C(=O)C(C)C)C(=O)C(CC=C(C)C)=C2O` (stereo not shown) [Olympiforin B], which “Bacteria remaining in time kill assay” value (S. aureus; 1/2 × MBC, 24 h) is on record?
A: Its value is 302,000 CFU/mL.

Q: And the “Outcome of time kill assay” value (S. aureus; MBC concentration, by 24 h)?
A: The value was “killed all bacteria”.

Q: What about the “CYP450 3A4, Mean Diff. Co vs. agent (Tukey)” value (human CYP450 3A4 isoform; 2×MIC, control minus treated) of the same compound?
A: Its value is 0.000325.

Q: What about the “Induction of CYP450 3A4” value (human CYP450 3A4 isoform; HEPG2, 24 h, concentrations inhibiting S. aureus) of the same compound?
A: Its value is “hardly induce”.

Q: And the IC50 (CCL-1; Mus musculus, MTT assay)?
A: The IC50 was 5.5 µg/mL (≈ 11.7 µM).

Q: What about the “Maximum tolerated concentration (MTC), CCL-1” value (CCL-1; at least 70% of cells viable, ISO 10993-5) of the same compound?
A: The value was 4.79 µg/mL.

Q: What about the IC50 (tumor cell lines) of the same compound?
A: The IC50 was 1300 nM.

Q: And the “Colonies per well for CCL-1 cells” value (CCL-1 cells; 1/2 × IC50, 48 h exposure)?
A: Its value is 167.

Q: What about the “Percentage of colonies, CCL-1” value (CCL-1 cells; 1/2 × IC50) of the same compound?
A: The value was 106%.

Q: What about the “Colonies per well for CCL-1 cells” value (CCL-1 cells; 2 × IC50, 48 h exposure) of the same compound?
A: Its value is 61.

Q: And the “Percentage of colonies, CCL-1” value (CCL-1 cells; 2 × IC50)?
A: Its value is 39%.

Q: What about the “Colonies per well for CCL-1 cells” value (CCL-1 cells; IC50, 48 h exposure) of the same compound?
A: The value was 62.

Q: And the “Percentage of colonies, CCL-1” value (CCL-1 cells; IC50)?
A: The value was 40%.
